Eight compounds from PubChem BioAssay (NCI) can be followed below.

Structures are written as SMILES. “And” between values parts separate entries of the source, which are not always exact repeats. Identical values can stand only once.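 Following 48 hours of exposure in 96-well plates, responses at five concentrations were used to interpolate endpoints linearly. GI50: concentration for 50% inhibition of growth. TGI: concentration producing complete growth inhibition.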

Some test systems named below: NCI-H23 lung; NCI-H460 lung; CCRF-CEM leukemia; HOP-62 NSCLC; KM12 colon; SR leukemia; RXF 393 renal; OVCAR-8 ovarian; NCI-H226 lung; SK-OV-3 ovarian.
Holding throughout (experiment): inhibition of tumour cell growth, NCI panel, 48 h

Regarding `CN1CCN(Cc2ccc(NC(=O)c3cncc(C#Cc4c(N)ncc5ccc(C#N)cc45)c3)cc2C(F)(F)F)CC1`, the GI50 in the assay on NCI-H23 lung was 1.02 µM; in the assay on NCI-H460 lung, 0.878 µM; in the assay on CCRF-CEM leukemia it was 1.04 µM; with HOP-62 NSCLC, 0.849 µM; with KM12 colon, 0.005 µM; with SR leukemia, 0.547 µM. For the same compound, the GI50 in the assay with RXF 393 renal was 1.08 µM; in the assay on OVCAR-8 ovarian, 0.926 µM; in the assay with NCI-H226 lung it was 0.294 µM; in the assay with SK-OV-3 ovarian it was 8.27 µM. Besides, the TGI worked out at 3.6 µM in the assay with NCI-H23 lung; 1.77 µM in the assay on NCI-H460 lung; 3.08 µM in the assay on CCRF-CEM leukemia; 1.92 µM in the assay on HOP-62 NSCLC; 0.791 µM in the assay with KM12 colon; 2.57 µM in the assay with SR leukemia. Besides, the TGI was found to be 2.88 µM with RXF 393 renal, 1.87 µM in the assay on OVCAR-8 ovarian, 14.5 µM with NCI-H226 lung and 17.5 µM with SK-OV-3 ovarian.
In the case of `CC1CCCC(C(=O)CC2CC(=O)NC(=O)C2)C1=O` (stereo not drawn), the TGI in the assay with NCI-H23 lung, with NCI-H460 lung, in the assay on CCRF-CEM leukemia, with HOP-62 NSCLC, with KM12 colon and with SR leukemia was above 100 µM in each case. In addition, the TGI with RXF 393 renal, in the assay with OVCAR-8 ovarian, in the assay with NCI-H226 lung and in the assay on SK-OV-3 ovarian was above 100 µM in each case.
Turning to `Oc1cc(N2CC2)c(O)cc1N1CC1`, the GI50 in the assay on NCI-H23 lung is 0.396 µM; in the assay on NCI-H460 lung it was 0.21 µM; with CCRF-CEM leukemia, 0.556 µM; in the assay with HOP-62 NSCLC it was 0.632 µM; in the assay with KM12 colon, 1.63 µM; with SR leukemia, 0.159 µM. For the same compound, the GI50 in the assay with RXF 393 renal is 0.358 µM; in the assay on OVCAR-8 ovarian, 1.25 µM; with NCI-H226 lung, 1.63 µM; with SK-OV-3 ovarian, 1.54 µM. The TGI in the assay on NCI-H23 lung is 1.8 µM; in the assay on NCI-H460 lung it was 5.15 µM; with CCRF-CEM leukemia, above 45 µM; with HOP-62 NSCLC, 2.99 µM; in the assay on KM12 colon it was 4.44 µM; in the assay with SR leukemia, 4.03 µM. Besides, the TGI is 1.21 µM with RXF 393 renal, 9.44 µM in the assay on OVCAR-8 ovarian, 4.59 µM in the assay on NCI-H226 lung and 8.77 µM with SK-OV-3 ovarian.
As for `O=C(CCCn1c2c(sc3ccccc32)c(=O)n2nnc(-c3ccccc3)c12)NCCc1cnc[nH]1`, the GI50 with NCI-H23 lung was 2.71 µM; with NCI-H460 lung it was 1.7 µM; with CCRF-CEM leukemia, 0.0368 µM; in the assay on HOP-62 NSCLC, 1.31 µM; in the assay with KM12 colon, 0.593 µM; with SR leukemia it was 0.356 µM. The figures for the GI50 in the assay with RXF 393 renal, with NCI-H226 lung and in the assay with SK-OV-3 ovarian were 2.56 µM, 4.43 µM and 2 µM, respectively. The TGI in the assay with NCI-H23 lung came to 9.6 µM; in the assay on NCI-H460 lung, 3.11 µM; in the assay with HOP-62 NSCLC, 2.87 µM; in the assay with KM12 colon, 3.19 µM; in the assay with SR leukemia, 5.61 µM; with RXF 393 renal it was 5.25 µM. In addition, the values for the TGI in the assay on OVCAR-8 ovarian, in the assay with NCI-H226 lung and in the assay on SK-OV-3 ovarian were 2.99 µM, 14.1 µM and 6.04 µM, respectively.
Consider `NC(=O)c1cccc2c(N[C@H](CN3CCC3)c3ccc(Cl)c(C(F)(F)F)c3)ncnc12`, for which the GI50 in the assay on NCI-H23 lung is 3.08 µM; in the assay on NCI-H460 lung, 0.739 µM; in the assay on CCRF-CEM leukemia, 0.871 µM; in the assay on HOP-62 NSCLC, 0.964 µM; with KM12 colon, 0.885 µM; in the assay on SR leukemia, 1.35 µM. Further, the GI50 in the assay on RXF 393 renal is 0.141 µM; with OVCAR-8 ovarian it was 4.55 µM; with NCI-H226 lung, 1.99 µM; in the assay on SK-OV-3 ovarian it was 0.493 µM. Besides, the TGI in the assay on NCI-H23 lung came to 17 µM; in the assay with NCI-H460 lung it was 12.4 µM; with CCRF-CEM leukemia it was 12 µM; in the assay with HOP-62 NSCLC, 14.5 µM; with KM12 colon, 13.3 µM; in the assay with SR leukemia, 6.58 µM. The TGI in the assay with RXF 393 renal stood at 1.4 µM; in the assay with OVCAR-8 ovarian it was 19.2 µM; in the assay with NCI-H226 lung, 16.2 µM; in the assay with SK-OV-3 ovarian, 4.3 µM.
As for `CS(=O)(=O)CCNCc1ccc(-c2ccc3ncnc(Nc4ccc(OCc5cccc(F)c5)c(Cl)c4)c3c2)o1`, the GI50 with NCI-H23 lung was > 10 µM and 7.82 µM and 10.4 µM; in the assay on NCI-H460 lung, > 10 µM and 4.11 µM and 8.98 µM; in the assay with CCRF-CEM leukemia, > 10 µM and 2.03 µM and 1.56 µM; with HOP-62 NSCLC it was > 10 µM and > 62.2 µM and 13 µM; with KM12 colon, 8.92 µM and 2.03 µM and 5.25 µM; in the assay on SR leukemia, 2.75 µM and 2.57 µM and 2.28 µM. In addition, the GI50 in the assay on RXF 393 renal is 8.01 µM and 2.05 µM and 1.79 µM; in the assay on OVCAR-8 ovarian, 6.83 µM and 4.17 µM and 4.12 µM; with NCI-H226 lung, > 10 µM and > 100 µM and 25 µM; with SK-OV-3 ovarian it was 0.0681 µM and 0.0409 µM and 0.0441 µM. The TGI was > 10 µM and > 100 µM and 31.1 µM in the assay on NCI-H23 lung; > 10 µM and > 29.3 µM and 48.7 µM with NCI-H460 lung; > 10 µM and 5.67 µM and 20.7 µM in the assay with CCRF-CEM leukemia; > 10 µM and > 100 µM and 43.9 µM in the assay with HOP-62 NSCLC; > 10 µM and 4 µM and 24.5 µM in the assay on KM12 colon; > 10 µM and 5.8 µM and 11.3 µM with SR leukemia. Further, the TGI in the assay with RXF 393 renal is > 10 µM and 4.5 µM and 7.05 µM; in the assay with OVCAR-8 ovarian, > 10 µM and > 100 µM and 32.2 µM; with NCI-H226 lung, > 10 µM and > 100 µM and 86.7 µM; in the assay on SK-OV-3 ovarian it was > 10 µM and > 100 µM and 31.7 µM.
Regarding `Cc1cc(Cl)nc2ccc(Cc3ccc4nc(Cl)cc(C)c4c3)cc12`, the TGI in the assay on NCI-H23 lung was above 100 µM; in the assay with NCI-H460 lung it was above 100 µM; in the assay on CCRF-CEM leukemia it was above 100 µM; in the assay on HOP-62 NSCLC it was 96.9 µM; with KM12 colon, above 100 µM; in the assay on SR leukemia, above 100 µM. Also, the TGI in the assay on RXF 393 renal is 27.6 µM; with OVCAR-8 ovarian, above 100 µM; in the assay on NCI-H226 lung, above 100 µM; in the assay on SK-OV-3 ovarian, 47.1 µM.
`COc1cc(-c2cc3ncccc3c3nc(OCCN(C)C)c4cccnc4c23)cc(OC)c1OC`: the GI50 is 0.619 µM with NCI-H23 lung; 0.349 µM with NCI-H460 lung; 0.714 µM in the assay on CCRF-CEM leukemia; 0.75 µM in the assay on HOP-62 NSCLC; 1.14 µM with KM12 colon; 0.244 µM in the assay on SR leukemia. Also, the GI50 was 0.473 µM in the assay on RXF 393 renal, 0.339 µM in the assay with OVCAR-8 ovarian, 0.623 µM in the assay on NCI-H226 lung and 0.458 µM in the assay with SK-OV-3 ovarian. Also, the TGI in the assay with NCI-H23 lung was 3.31 µM; in the assay with NCI-H460 lung, 1.88 µM; in the assay on CCRF-CEM leukemia, 8.09 µM; in the assay on HOP-62 NSCLC, 3 µM; in the assay with KM12 colon, above 100 µM; with SR leukemia, 2.07 µM. Besides, the TGI stood at 2.07 µM in the assay with RXF 393 renal, 1.94 µM in the assay with OVCAR-8 ovarian, 2.46 µM in the assay with NCI-H226 lung and 2.18 µM in the assay on SK-OV-3 ovarian.
